Results: PubChem BioAssay (NCI)
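The compound was tested at five concentrations on cells cultured in 96-well plates, with a 48-hour exposure period. TGI marks complete inhibition of growth.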

Tests used:
Assay in all cases: DTP human tumour cell line panel, 48 h
[1] = system: DU-145 prostate
[2] = system: HS 578T breast
[3] = system: IGROV1 ovarian
[4] = system: M14 melanoma
[5] = system: MALME-3M melanoma
[6] = system: MDA-MB-231 breast
[7] = system: MDA-MB-435
[8] = system: NCI-H460 lung
[9] = system: OVCAR-5 ovarian
[10] = system: RXF 393 renal
[11] = system: SK-MEL-28 melanoma
[12] = system: SK-OV-3 ovarian
[13] = system: T-47D breast
[14] = system: U251 CNS

SMILES	TGI [1] [µM]	TGI [2] [µM]	TGI [3] [µM]	TGI [4] [µM]	TGI [5] [µM]	TGI [6] [µM]	TGI [7] [µM]	TGI [8] [µM]	TGI [9] [µM]	TGI [10] [µM]	TGI [11] [µM]	TGI [12] [µM]	TGI [13] [µM]	TGI [14] [µM]
COc1cc(OC)cc(-c2nc3ccccc3c(=O)[nH]2)c1	> 100	> 100	> 100	> 100	> 100	> 100	> 100	> 100	> 100	> 100	> 100	62.8	> 100	> 100
NC(=O)c1ccc(S(=O)(=NS(=O)(=O)c2ccccc2)c2ccc(C(N)=O)cc2)cc1	> 100	> 100	> 100	> 100	> 100	> 100	> 100	> 100	> 100	> 100	> 100	> 100	> 100	> 100
CCOC(=O)CCN1C(=O)c2c(NC(=O)C(=O)O)cccc2S1(=O)=O	> 100	> 100	> 100	> 100	> 100	> 100	> 100	> 100	> 100	> 100	> 100	> 100	> 100	> 100
CC(=O)N1C(=O)/C(=C\C(=O)c2ccc(Cl)cc2)c2ccccc21	33.7	> 57.3	33.2	38.8	32.6	30.3	36.5	32.5	48.4	32.6	35.8	59.9	47.6	37.2
COc1ccc(C2CCc3c(cnc4nc(N)nc(N)c34)C2)cc1 (stereo not given)	> 100	> 100	> 100	> 100	> 100	> 100	> 100	> 100	> 100	42.6	> 100	50.1	95.3	> 100
Cc1nc2ccccc2nc1N1CCCC1	> 100	> 100	> 100	> 100	> 100	> 100	> 100	> 100	> 100	> 100	> 100	> 100	> 100	> 100
Cn1c(-c2cccs2)cc(-c2ccsc2)c1-c1ccsc1	> 100	> 100	> 100	> 100	> 100	> 100	> 100	> 100	> 100	> 100	> 100	> 100	59.6	> 100
C[C@@H]1CC(=O)[C@@]2(C)[C@](O)(CCC3O[C@]32C)[C@@]12CC(c1ccoc1)OC2=O (stereo not given in full)	> 100	> 100	> 100	> 100	> 100	> 100	> 100	> 100	> 100	88.6	> 100	> 100	> 100	> 100
CO/C=C(/C(=O)OC)c1ccccc1[C@H]1C[C@@H]1c1ccccc1	> 100	> 100	58.1	68.8	41.3	> 100	43.3	88.6	> 100	> 100	64.2	51.2	63.1	> 100
CCOC(=O)C1=C(C)N(c2ccc(Cl)cc2)C2(O)C=CC(=O)C3C(=O)N(c4ccccc4)C(=O)C132 (stereo not given)	4.65	12.8	3.11	3.29	3.57	4.59	6.83	4.97	4.15	3.31	3.06	8.27	6.55	5.39
